The test system of test [1] is M. tuberculosis IAR2 (mmpL3 S288T mutant). In kind it is cell-based, Mycobacterium tuberculosis.
The test system of test [2] is TF274 (extensively drug resistant strain of M. tuberculosis). The test is described as follows: microbe, parasite or virus in culture. In kind it is cell-based. Particulars: Mycobacterium tuberculosis; read-out: MIC TF274 (XDR).
Test [3] concerns R506 (extensively drug resistant strain of M. tuberculosis). The test is described as follows: microbe, parasite or virus in culture. In kind it is cell-based. Particulars: Mycobacterium tuberculosis; read-out: MIC R506 (XDR).
Test [4] has as its system KZN494 (multi-drug resistant strain of M. tuberculosis). Kind of test: microbe, parasite or virus in culture. In kind it is cell-based. To be noted: Mycobacterium tuberculosis; read-out: MIC KZN494 (MDR).
Test [5] has as its system V2475 (multi-drug resistant strain of M. tuberculosis). The test is described as follows: microbe, parasite or virus in culture. In kind it is cell-based. Particulars: Mycobacterium tuberculosis; read-out: MIC V2475 (MDR).

Converted amounts (≈) assume the structure as drawn.

On to `CO[C@H]1/C=C/O[C@@]2(C)Oc3c(C)c(O)c4c(O)c(c(/C=N/N5CCN(C)CC5)c(O)c4c3C2=O)NC(=O)/C(C)=C\C=C\[C@H](C)[C@H](O)[C@@H](C)[C@@H](O)[C@@H](C)[C@H](OC(C)=O)[C@@H]1C` [Rifampin], for which, in test [1], the “Fold change in MIC for IAR2” value is 0.25, the “MIC for IAR2” value is 0.03125 µg/mL and the “MIC for IAR2 compared with H37Rv” value was “lower MIC value”.
Take AU1235: in test [1], the “MIC for IAR2” value is greater than 64 µg/mL.
With `Cc1cc(C)c2cc(C(=O)NC3CCCCCC3)[nH]c2c1` [Compound 11, N-Cycloheptyl-4,6-dimethyl-1H-indole-2-carboxamide], the MIC stood at 0.055 µM (≈ 0.0156 µg/mL) in test [2], 0.055 µM (≈ 0.0156 µg/mL) in test [3], 0.11 µM (≈ 0.0313 µg/mL) in test [4] and 0.11 µM (≈ 0.0313 µg/mL) in test [5]. For the same compound, the “Fold change in MIC for IAR2” value in test [1] was 32-64. The “MIC for IAR2” value in test [1] was 1 µg/mL.
With `CC[C@@H](CO)NCCN[C@@H](CC)CO` [Ethambutol], in test [1], the “Fold change in MIC for IAR2” value is on record as 0 and the “MIC for IAR2” value was 1 µg/mL.
Regarding `NCC[C@H](O)C(=O)N[C@@H]1C[C@H](N)[C@@H](O[C@H]2O[C@H](CN)[C@@H](O)[C@H](O)[C@H]2O)[C@H](O)[C@H]1O[C@H]1O[C@H](CO)[C@@H](O)[C@H](N)[C@H]1O` [Amikacin], in test [1], the “Fold change in MIC for IAR2” value amounted to 0 and the “MIC for IAR2” value was determined as 1 µg/mL.
As for `Cc1cc(C)c2cc(C(=O)NC3CCCCCCC3)[nH]c2c1` [Compound 12, N-Cyclooctyl-4,6-dimethyl-1H-indole-2-carboxamide], in test [2], the MIC is 0.026 µM (≈ 0.00776 µg/mL). In test [3], the MIC was determined as 0.0067 µM (≈ 0.002 µg/mL). For the same compound, in test [1], the “Fold change in MIC for IAR2” value was 64 and the “MIC for IAR2” value was found to be 0.25 µg/mL.
Turning to BM212, in test [1], the “Fold change in MIC for IAR2” value was 2, the “MIC for IAR2” value was found to be 4 µg/mL and the “MIC upshift for IAR2 versus H37Rv” value was 2 fold.
Turning to `CC(C)=CCC/C(C)=C/CNCCNC1C2CC3CC(C2)CC1C3` (stereo not shown) [SQ109], in test [1], the “Fold change in MIC for IAR2” value turned out to be 16 and the “MIC for IAR2” value came out at 4 µg/mL.
Turning to Capreomycin, in test [1], the “Fold change in MIC for IAR2” value is 0 and the “MIC for IAR2” value was determined as 1 µg/mL.
As for `NNC(=O)c1ccncc1` [Isoniazid, reference compound], in test [1], the “Fold change in MIC for IAR2” value amounted to 0 and the “MIC for IAR2” value is 0.04 µg/mL.
For `Cc1cc(C)c2cc(C(=O)NC3CCCCC3)[nH]c2c1` [Compound 3, N-Cyclohexyl-4,6-dimethyl-1H-indole-2-carboxamide], the MIC was 0.46 µM (≈ 0.124 µg/mL) in test [2], 0.46 µM (≈ 0.124 µg/mL) in test [3], 3.7 µM (≈ 1 µg/mL) in test [4] and 0.93 to 1.9 µM (≈ 0.251 to 0.514 µg/mL) in test [5]. In addition, the “Fold change in MIC for IAR2” value in test [1] is “≧(512-1024)”. Further, in test [1], the “MIC for IAR2” value is reported as “≧128 μg/mL”. Further, the “MIC upshift for IAR2 versus H37Rv” value in test [1] is no less than 1024 fold.

The values above are taken from patent US20170044100A1, “INHIBITORS OF DRUG-RESISTANT MYCOBACTERIUM TUBERCULOSIS” (THE JOHNS HOPKINS UNIVERSITY, priority 2014, published 2017).
